TAerosol purity data for 1 compound are collected here from patent publication US20240408325A1, “HANDHELD MEDICAL DEVICE WITH IMPROVED DELIVERY OF AEROSOL PARTICLES” (ALEXZA PHARMACEUTICALS, INC., priority 2021, published 2024).

Structures can show the parent of a compound that is named as a salt.

A short description of the series: Purity of the aerosol versus drug foil temperature (Method 2). The class given is physicochemical. As to conditions: Devices A, 1.0 mg coated. The procedure:
Solutions were analysed by UPLC with water (ammonium formate/formic acid) and acetonitrile as mobile phase using UV detection at 275 nm as acquisition wavelength.
This method is based on the US Pharmacopeia “Sampling the Delivered Dose from Metered-Dose Inhalers” of the “Metered-Dose Inhalers and Dry Powder Inhalers” section.
The mouthpiece of the device to be tested was tightly attached to a mouthpiece adapter connected to an end of a 12 cm sample connection tube which at the other end has attached a filter support cap having a ø 47 mm, 2.2 μm pore size, quartz filter (QM-A, Whatman) which was connected to a pump to create an airflow which triggers the flow sensor and the foil substrate is heated.
The material in the filter and the sample connection tube was extracted with methanol and analysed as in Method 1.
The foil substrates of Devices A were coated with 1.0 mg of apomorphine HCl and tested as in Method 2 at different drug foil temperatures (2 devices per temperature point except 310° C. where 4 devices were used). The devices are triggered at a 30 mL/min airflow.

In the case of `CN1CCc2cccc3c2[C@H]1Cc1ccc(O)c(O)c1-3` [apomorphine HCl], the TAerosol purity was 98.4 ± 0.6% (drug foil 260 °C), 96.4 ± 0.9% (drug foil 290 °C), 95 ± 1% (drug foil 310 °C) and 90.9 ± 0.8% (drug foil 320 °C).
